Common to all, as to type: cell-based
One experiment concerns Pseudomonas RL 112. Kind of experiment: MIC, in vitro dilution method, Pseudomonas RL 112 (Table III). The settings on record: RL112. From the text:
(§1) The products of the invention have been studied as regards their pharmacological properties and, more especially, bacteriostatic action. This has been determined in vitro by the dilution method, and the study was on Gram negative strains.
(§2) Results, expressed in minimum inhibiting concentrations (MIC-- μg/ml), are collected in the following table (Table III).

The next experiment has as its system Citrobacter RL 49. Kind of experiment: MIC, in vitro dilution method, Citrobacter RL 49 (Table III). Conditions: RL49; Citrobacter RL 49; dilution method; read-out: MIC.
Excerpt: as §1, §2

Experiment [1] has as its system Proteus vulgaris RL 99 bis. Nature of the experiment: MIC, in vitro dilution method, Proteus vulgaris RL 99 bis (Table III). Conditions: RL99BIS; Proteus vulgaris RL 99 bis; dilution method; read-out: MIC.
Excerpt: as §1, §2

Another experiment relates to Enterobacter RO 154. Nature of the experiment: MIC, in vitro dilution method, Enterobacter RO 154 (Table III). Conditions: RO154; Enterobacter RO 154; dilution method; read-out: MIC.
Excerpt: as §1, §2

In a further experiment the test system is Serratia RL 72. Kind of experiment: MIC, in vitro dilution method, Serratia RL 72 (Table III). Conditions: RL72.
Excerpt: as §1, §2

Another experiment deals with Escherichia coli SOL 90. Nature of the experiment: MIC, in vitro dilution method, Escherichia coli SOL 90 (Table III). The settings on record: SOL90; Escherichia coli SOL 90; dilution method; read-out: MIC.
Excerpt: as §1, §2

The next experiment has as its system Klebsiella RO 30. Kind of experiment: MIC, in vitro dilution method, Klebsiella RO 30 (Table III). Conditions: RO30; Klebsiella RO 30; dilution method; read-out: MIC.
Excerpt: as §1, §2

Consider 11 compounds from patent publication US4656166A, “Antibiotic compounds derived from cephalosporins, process for their production and pharmaceutical compositions” (Sanofi, priority 1983, dated 1987).

One may read the MIC as the smallest concentration in the dilution series that meets the test's criterion for growth inhibition.

Each structure is given as a SMILES string. ≈ marks a conversion by molar mass, not a printed value. Bounds are passed on as bounds.

With `CNCc1ccc(C(=O)OCC2=C(C(=O)O)N3C(=O)C(NC(=O)/C(=N\OC4(C(=O)O)CCC4)c4csc(N)n4)C3[S+]([O-])C2)cc1` (centres unmarked) [42 464], the MIC is 4 µg/mL (≈ 6.05 µM) in the experiment with Pseudomonas RL 112; at most 0.125 µg/mL in the experiment on Citrobacter RL 49; at most 0.125 µg/mL in experiment [1]; at most 0.125 µg/mL with Enterobacter RO 154; 0.5 µg/mL (≈ 0.757 µM) against Serratia RL 72; at most 0.125 µg/mL with Escherichia coli SOL 90. In addition, the MIC in the experiment on Klebsiella RO 30 was at most 0.125 µg/mL.

Regarding `NCc1cccc(C(=O)SCC2=C(C(=O)O)N3C(=O)C(NC(=O)C(=NOC4(C(=O)O)CCC4)c4csc(N)n4)C3[S+]([O-])C2)c1` (centres unmarked) [compound 42532], the minimal inhibitory concentration (MIC) with Pseudomonas RL 112 was 8 µg/mL (≈ 12.1 µM); with Citrobacter RL 49, 0.25 µg/mL (≈ 0.377 µM); in experiment [1], at most 0.125 µg/mL; in the experiment with Enterobacter RO 154 it was 0.5 µg/mL (≈ 0.754 µM); with Serratia RL 72 it was 1 µg/mL (≈ 1.51 µM); in the experiment on Escherichia coli SOL 90 it was 0.5 µg/mL (≈ 0.754 µM). Besides, in the experiment with Klebsiella RO 30, the minimal inhibitory concentration (MIC) stood at 0.25 µg/mL (≈ 0.377 µM).

In the case of `CC(C)NCc1ccc(C(=O)OCC2=C(C(=O)O)N3C(=O)C(NC(=O)/C(=N\OC(C)(C)C(=O)O)c4csc(N)n4)C3[S+]([O-])C2)cc1` (centres unmarked) [42 397], the MIC in the experiment on Pseudomonas RL 112 was 8 µg/mL (≈ 11.8 µM); in the experiment with Citrobacter RL 49, at most 0.125 µg/mL; in experiment [1], at most 0.125 µg/mL; in the experiment on Enterobacter RO 154 it was at most 0.125 µg/mL; against Serratia RL 72, 1 µg/mL (≈ 1.48 µM); in the experiment with Escherichia coli SOL 90, at most 0.125 µg/mL. Moreover, the MIC in the experiment with Klebsiella RO 30 is at most 0.125 µg/mL.

For `CC(C)(CN)C(=O)OCC1=C(C(=O)O)N2C(=O)C(NC(=O)/C(=N\OC3(C(=O)O)CCC3)c3csc(N)n3)C2[S+]([O-])C1` (centres unmarked) [42 208], the MIC was 4 µg/mL (≈ 6.53 µM) in the experiment on Pseudomonas RL 112; 0.5 µg/mL (≈ 0.816 µM) with Citrobacter RL 49; at most 0.12 µg/mL in experiment [1]; 0.25 µg/mL (≈ 0.408 µM) in the experiment on Enterobacter RO 154; 1 µg/mL (≈ 1.63 µM) with Serratia RL 72; 0.5 µg/mL (≈ 0.816 µM) with Escherichia coli SOL 90. The minimal inhibitory concentration (MIC) in the experiment on Klebsiella RO 30 came out at 0.5 µg/mL (≈ 0.816 µM).

For the compound `CC(C)(O/N=C(\C(=O)NC1C(=O)N2C(C(=O)O)=C(COC(=O)CC3CCCCN3)C[S+]([O-])C12)c1csc(N)n1)C(=O)O` (centres unmarked) [42 371], the MIC in the experiment with Pseudomonas RL 112 is 8 µg/mL (≈ 12.8 µM); in the experiment on Citrobacter RL 49 it was 0.25 µg/mL (≈ 0.399 µM); in experiment [1], at most 0.125 µg/mL; in the experiment on Enterobacter RO 154, 0.25 µg/mL (≈ 0.399 µM); against Serratia RL 72, 0.5 µg/mL (≈ 0.798 µM); in the experiment on Escherichia coli SOL 90, 0.5 µg/mL (≈ 0.798 µM). In addition, the minimum inhibitory concentration (MIC) with Klebsiella RO 30 came to 0.25 µg/mL (≈ 0.399 µM).

As for `CC(C)(O/N=C(\C(=O)NC1C(=O)N2C(C(=O)O)=C(COC(=O)[C@@H](N)Cc3c[nH]cn3)C[S+]([O-])C12)c1csc(N)n1)C(=O)O` (some centres unmarked) [41 889], the MIC with Pseudomonas RL 112 came out at 8 µg/mL (≈ 12.5 µM); in the experiment with Citrobacter RL 49 it was 1 µg/mL (≈ 1.57 µM); in experiment [1], 0.5 µg/mL (≈ 0.783 µM); with Enterobacter RO 154, 8 µg/mL (≈ 12.5 µM); against Serratia RL 72, 4 µg/mL (≈ 6.26 µM); in the experiment with Escherichia coli SOL 90, 1 µg/mL (≈ 1.57 µM). Moreover, the minimal inhibitory concentration (MIC) in the experiment with Klebsiella RO 30 stood at 1 µg/mL (≈ 1.57 µM).

As to `CC(C)(N)C(=O)OCC1=C(C(=O)O)N2C(=O)C(NC(=O)/C(=N\OC(C)(C)C(=O)O)c3csc(N)n3)C2[S+]([O-])C1` (centres unmarked) [41 858], the MIC is 8 µg/mL (≈ 13.6 µM) with Pseudomonas RL 112; 1 µg/mL (≈ 1.7 µM) with Citrobacter RL 49; 0.5 µg/mL (≈ 0.852 µM) in experiment [1]; 8 µg/mL (≈ 13.6 µM) with Enterobacter RO 154; 4 µg/mL (≈ 6.82 µM) against Serratia RL 72; 2 µg/mL (≈ 3.41 µM) in the experiment on Escherichia coli SOL 90. Besides, the MIC with Klebsiella RO 30 was 0.5 µg/mL (≈ 0.852 µM).

Turning to `CC(C)(O/N=C(\C(=O)NC1C(=O)N2C(C(=O)O)=C(COC(=O)c3cccc(NC(=O)CN)c3)C[S+]([O-])C12)c1csc(N)n1)C(=O)O` (centres unmarked) [42 374], the minimum inhibitory concentration (MIC) in the experiment on Pseudomonas RL 112 is 4 µg/mL (≈ 5.9 µM); in the experiment on Citrobacter RL 49, 0.25 µg/mL (≈ 0.369 µM); in experiment [1], at most 0.125 µg/mL; in the experiment with Enterobacter RO 154 it was 0.25 µg/mL (≈ 0.369 µM); in the experiment on Serratia RL 72, 1 µg/mL (≈ 1.48 µM); with Escherichia coli SOL 90, 0.5 µg/mL (≈ 0.738 µM). Moreover, in the experiment with Klebsiella RO 30, the MIC was determined as 0.25 µg/mL (≈ 0.369 µM).

Regarding `CC(O/N=C(\C(=O)NC1C(=O)N2C(C(=O)O)=C(COC(=O)[C@H]3CC[C@H](CN)CC3)C[S+]([O-])C12)c1csc(N)n1)C(=O)O` (some centres unmarked) [42 217], the MIC in the experiment on Pseudomonas RL 112 is 16 µg/mL (≈ 25.5 µM); with Citrobacter RL 49 it was at most 0.12 µg/mL; in experiment [1] it was at most 0.12 µg/mL; with Enterobacter RO 154, at most 0.12 µg/mL; in the experiment with Serratia RL 72 it was 0.25 µg/mL (≈ 0.399 µM); in the experiment on Escherichia coli SOL 90, at most 0.12 µg/mL. In the experiment on Klebsiella RO 30, the minimal inhibitory concentration (MIC) is at most 0.12 µg/mL.

Regarding `CC(C)(O/N=C(\C(=O)NC1C(=O)N2C(C(=O)O)=C(COC(=O)C3(N)CCCCC3)C[S+]([O-])C12)c1csc(N)n1)C(=O)O` (centres unmarked) [41 976], the MIC with Pseudomonas RL 112 was 8 µg/mL (≈ 12.8 µM); with Citrobacter RL 49, 0.5 µg/mL (≈ 0.798 µM); in experiment [1] it was 0.25 µg/mL (≈ 0.399 µM); in the experiment with Enterobacter RO 154 it was 8 µg/mL (≈ 12.8 µM); against Serratia RL 72, 8 µg/mL (≈ 12.8 µM); in the experiment with Escherichia coli SOL 90 it was 1 µg/mL (≈ 1.6 µM). Further, the minimal inhibitory concentration (MIC) in the experiment with Klebsiella RO 30 amounted to 0.5 µg/mL (≈ 0.798 µM).

In the case of `Nc1nc(/C(=N/OC2(C(=O)O)CCC2)C(=O)NC2C(=O)N3C(C(=O)O)=C(COC(=O)CC4CCCCN4)C[S+]([O-])C23)cs1` (centres unmarked) [42 471], the MIC was 8 µg/mL (≈ 12.5 µM) with Pseudomonas RL 112; 0.25 µg/mL (≈ 0.391 µM) in the experiment with Citrobacter RL 49; at most 0.125 µg/mL in experiment [1]; 0.25 µg/mL (≈ 0.391 µM) in the experiment on Enterobacter RO 154; 0.5 µg/mL (≈ 0.783 µM) against Serratia RL 72; 0.5 µg/mL (≈ 0.783 µM) in the experiment with Escherichia coli SOL 90. Moreover, in the experiment with Klebsiella RO 30, the MIC was 0.25 µg/mL (≈ 0.391 µM).
